Assay results published in paper PMC8952364, “Polyphenols as Inhibitors of Antibiotic Resistant Bacteria—Mechanisms Underlying Rutin Interference with Bacterial Virulence” (Pharmaceuticals, 2022).
In brackets after ≈: the same amount, converted by molar mass.

Assays:
S. infantis 1371/1 = assay: Antimicrobial microdilution assay (MIC/MBC); assay type: cell-based, Salmonella Infantis; conditions: Salmonella enterica, 1371/1
Procedure, shortened: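 Broth microdilution: 0.5 McFarland suspensions, diluted twenty-fold, were mixed 1:10 with polyphenol dilutions (0.0039–1 mg/mL) and incubated 24 h at 37 °C.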

[1] = system: P. aeruginosa IBRS P001 biofilm; assay: Crystal violet antibiofilm assay (biofilm formation); assay type: cell-based, Pseudomonas aeruginosa; conditions: 24 h
Procedure, shortened: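 After incubation, biofilms were washed with PBS (pH 7.4), methanol-fixed and stained 30 min with 0.1% crystal violet. Stain was solubilised in 96% ethanol and read at 620 nm. Values are biofilm-forming capacity (%) relative to control.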

HaCaT cells = assay: Cytotoxicity in HaCaT cell line (crystal violet assay); assay type: cell-based, human; conditions: Homo sapiens, HaCaT, 24 h, read-out: IC50 (compound concentration that inhibited 50% of the cell growth)
Procedure, shortened: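 HaCaT keratinocytes seeded 1 × 10^4 cells/well 24 h before treatment, then exposed to polyphenols for 24 h. Viable cells stained with crystal violet, absorbance at 590 nm. IC50 in μg/mL, triplicate with three readings each, mean ± SD.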

P. aeruginosa IBRS P001 = assay: Catheter biofilm inhibition model; assay type: cell-based, Pseudomonas aeruginosa; conditions: MIC and 0.5 MIC of rutin, 24 h
Method: The method was performed as described previously, with some modifications. Sterile silicon 16-mm Romed catheters (Van Oostveen Medical, Wilnis, The Netherlands) were cut into 1 cm lengths and placed in 24-well plates (Sarstedt, Nümbrecht, Germany). P. aeruginosa IBRS P001 and MRSA in TSB with 2% glucose (Torlak, Belgrade, Serbia) and rutin (0.25–1 MIC) were added for the inhibition assay. After incubation (37 °C, 24 h), the catheters were washed with PBS and transferred to 1.5 mL tubes. PBS was added and tubes were vortexed vigorously. The samples were diluted and seeded onto Plate Count Agar (HiMedia Laboratories, Mumbai, India). After being incubated at 37 °C for 24 h, the CFU (colony forming units) count was determined and the inhibition percentage relative to the untreated control was calculated.

[2] = system: 24 h old P. aeruginosa IBRS P001 biofilms; assay: Biofilm eradication, Congo red binding assay (exopolysaccharide); assay type: cell-based, Pseudomonas aeruginosa
Method: The estimation of rutin’s impact on biofilm exopolysaccharide production (EPS) was determined by the Congo red binding assay. P. aeruginosa IBRS P001 biofilm EPS production was determined as previously described. […] The planktonic cells were removed, and the adherent cells were washed with PBS. Wells were stained with 1% (w/v) Congo red (SigmaAldrich, Germany) in the dark for 30 min. Wells were aspirated and subsequently the bound dye was solubilized with 200 μL DMSO. Absorbance at 490 nm was measured in a microtiter plate reader Multiskan™ FC microplate photometer (Thermo Scientific™, United States) and the inhibition percentage of EPS production was calculated according to the following equation:%Inhibition = [(A490control − A490sample)/A490control] × 100
The bacterial cells were incubated in TSB enriched with 2% glucose in 96-well plates (Sarstedt, Germany) with adhesive bottom at 37 °C for 24 h. After incubation, wells were washed with PBS, and rutin (MBC–4 MBC) in TSB with 2% glucose was added. Incubation continued at 37 °C for another 24 h. The planktonic cells were removed.
The assays continued as described above for the crystal violet antibiofilm assay for the measurement of biofilm mass, biofilm MTT assay for the interference with cell viability, Congo red binding assay for estimation of exopolysaccharide production, and eDNA assay.

[3] = system: P. aeruginosa IBRS P001 elastase production; assay: Elastase assay (Elastin-Congo red); assay type: cell-based, Pseudomonas aeruginosa; conditions: 0.25 mg/mL (0.5 MIC), compared to the control
Method: After 48 h of incubation (37 °C, 180 rpm), the mixtures were collected and centrifuged at 15,700× g for 15 min. Quantification of the elastase activity was measured at 495 nm using a Plate Reader Infinite 200 pro (MTX Lab Systems, Vienna, VA, USA). An untreated culture supernatant was used as a positive control (supplemented with the solvent). The experiment was done in triplicate.

[4] = system: P. aeruginosa IBRS P001 pyocyanin production; assay: Pyocyanin assay; assay type: cell-based, Pseudomonas aeruginosa; conditions: 0.25 mg/mL (0.5 MIC), compared to the control
Method: Pyocyanin extraction from the culture supernatant was performed using chloroform in a 1:2 ratio [71]. The second extraction of the chloroform phase was done by 0.2 N HCl (3:1 ratio). The pyocyanin concentration was evaluated by recording the absorbance at 520 nm using a Plate Reader Infinite 200 pro (MTX Lab Systems, Vienna, VA, USA). The pyocyanin concentration was calculated by multiplication of the absorbance (A520) by 17.072. A solvent-treated culture supernatant was used as a positive control.

EPS production = system: EPS production; set-up: method as in doi:10.1016/j.foodcont.2018.02.044; conditions: 200 µg/mL of rutin; cited from earlier work

C[C@@H]1O[C@@H](OC[C@H]2O[C@@H](Oc3c(-c4ccc(O)c(O)c4)oc4cc(O)cc(O)c4c3=O)[C@H](O)[C@@H](O)[C@@H]2O)[C@H](O)[C@H](O)[C@H]1O [Rutin, rutin]
MIC (S. infantis 1371/1; 37 °C, 24 h, read-out: MIC): 1000 µg/mL (≈ 1640 µM) | MBC (S. infantis 1371/1; subcultivation, 24 h at 37 °C, read-out: MBC): 1000 µg/mL (≈ 1640 µM) | reduction of biofilm formation (biomass), in words ([1]; MIC and sub-MIC, crystal violet, Figure 1): significant (****, p < 0.0001) reduction | biofilm biomass formed after treatment ([1]; MIC, 500 µg/mL): 6% | inhibition at 500 µg/mL ([1]; Pseudomonas aeruginosa, IBRSP001BIOFILM, 500 µg/mL (MIC)): 94% | IC50 (HaCaT cells): > 1000 µg/mL | biofilm inhibition on catheter (P. aeruginosa IBRS P001): 100% | number of colonies attached to the urinary catheters (P. aeruginosa IBRS P001): 0 | exopolysaccharide production decreased to ([2]; 2 MBC): 65% | exopolysaccharide production decreased to ([2]; 4 MBC): 69% | exopolysaccharide production decreased to ([2]; MBC): 89% | reduction of elastase production [3]: 91% | decrease of pyocyanin production [4]: 82.1% | inhibition of EPS production (EPS production): more than 40%
